Assays:
[1] = molecular target: Cyclin-dependent kinase-like 1 (Homo sapiens) (UniProt Q00532); conditions: Compound concentration 1000.0 nM
[2] = molecular target: Inhibitor of nuclear factor kappa-B kinase subunit alpha (Homo sapiens) (UniProt O15111); conditions: Compound concentration 1000.0 nM
[3] = molecular target: Serine/threonine-protein kinase ULK2 (Homo sapiens) (UniProt Q8IYT8); conditions: Compound concentration 1000.0 nM
[4] = molecular target: Alpha-1A adrenergic receptor (Homo sapiens, UniProt P35348)
[5] = molecular target: Serine/threonine-protein kinase PAK 4 (Homo sapiens) (UniProt O96013); conditions: Compound concentration 1000.0 nM
[6] = molecular target: Ephrin type-A receptor 7 (Homo sapiens) (UniProt Q15375); conditions: Compound concentration 1000.0 nM
[7] = test system: ALK tyrosine kinase receptor (Homo sapiens), Q9UM73 [L1196M]; conditions: Compound concentration 1000.0 nM
[8] = molecular target: Ribosomal protein S6 kinase alpha-4 (Homo sapiens) (UniProt O75676); conditions: Compound concentration 1000.0 nM
[9] = molecular target: Mitogen-activated protein kinase 6 (Homo sapiens) (UniProt Q16659); conditions: Compound concentration 1000.0 nM
[10] = molecular target: Citron Rho-interacting kinase (Homo sapiens) (UniProt O14578); conditions: Compound concentration 1000.0 nM
[11] = molecular target: Alpha-2B adrenergic receptor (Homo sapiens) (UniProt P18089); conditions: Compound concentration 10.0 uM
[12] = molecular target: Tyrosine-protein kinase HCK (Homo sapiens) (UniProt P08631); conditions: Compound concentration 1000.0 nM
[13] = test system: Proto-oncogene tyrosine-protein kinase receptor Ret (Homo sapiens), P07949 [V804M]; conditions: Compound concentration 1000.0 nM
[14] = molecular target: Serine/threonine-protein kinase MRCK alpha (Homo sapiens) (UniProt Q5VT25); conditions: Compound concentration 1000.0 nM
[15] = molecular target: Ribosomal protein S6 kinase alpha-3 (Homo sapiens) (UniProt P51812); conditions: Compound concentration 1000.0 nM
[16] = molecular target: Serine/threonine-protein kinase Sgk2 (Homo sapiens) (UniProt Q9HBY8); conditions: Compound concentration 1000.0 nM
[17] = molecular target: Proto-oncogene tyrosine-protein kinase ROS (Homo sapiens) (UniProt P08922); conditions: Compound concentration 1000.0 nM
[18] = molecular target: D(3) dopamine receptor (Homo sapiens) (UniProt P35462); conditions: Compound concentration 10.0 uM
[19] = molecular target: Muscarinic acetylcholine receptor M4 (Homo sapiens) (UniProt P08173); conditions: Compound concentration 10.0 uM
[20] = molecular target: Activin receptor type-1 (Homo sapiens) (UniProt Q04771); conditions: Compound concentration 1000.0 nM
[21] = molecular target: Serine/threonine-protein kinase B-raf (Homo sapiens) (UniProt P15056); conditions: Compound concentration 1000.0 nM
[22] = molecular target: Activated CDC42 kinase 1 (Homo sapiens) (UniProt Q07912); conditions: Compound concentration 1000.0 nM
[23] = molecular target: Mitogen-activated protein kinase 9 (Homo sapiens) (UniProt P45984); conditions: Compound concentration 1000.0 nM
[24] = molecular target: Histamine H4 receptor (Homo sapiens) (UniProt Q9H3N8); conditions: Compound concentration 10.0 uM
[25] = molecular target: Serine/threonine-protein kinase OSR1 (Homo sapiens) (UniProt O95747); conditions: Compound concentration 1000.0 nM
[26] = molecular target: Receptor-interacting serine/threonine-protein kinase 1 (Homo sapiens) (UniProt Q13546); conditions: Compound concentration 1000.0 nM
[27] = test system: Mast/stem cell growth factor receptor Kit (Homo sapiens), P10721 [V559D,V654A]; conditions: Compound concentration 1000.0 nM
[28] = molecular target: Phosphatidylinositol 4-kinase beta (Homo sapiens) (UniProt Q9UBF8); conditions: Compound concentration 1000.0 nM
[29] = molecular target: SNF-related serine/threonine-protein kinase (Homo sapiens) (UniProt Q9NRH2); conditions: Compound concentration 1000.0 nM
[30] = molecular target: Beta-3 adrenergic receptor (Homo sapiens) (UniProt P13945); conditions: Compound concentration 10.0 uM
[31] = molecular target: Serine/threonine-protein kinase Sgk1 (Homo sapiens) (UniProt O00141); conditions: Compound concentration 1000.0 nM
[32] = test system: Epidermal growth factor receptor (Homo sapiens), P00533 [L861Q]; conditions: Compound concentration 1000.0 nM
[33] = molecular target: Serotonin 1 (5-HT1) receptor (Homo sapiens) (UniProt P30939+P28222+P08908+P28221+P28566); assay: 5-HT1 Eurofins-Panlabs ligand profiling; format: protein assay; conditions: Compound concentration 10.0 uM
[34] = molecular target: T1, Alpha-2C adrenergic receptor (Homo sapiens) (UniProt P18825); assay: alpha2C Eurofins-Panlabs ligand profiling; conditions: Compound concentration 10.0 uM
T1 sequence (whole entry): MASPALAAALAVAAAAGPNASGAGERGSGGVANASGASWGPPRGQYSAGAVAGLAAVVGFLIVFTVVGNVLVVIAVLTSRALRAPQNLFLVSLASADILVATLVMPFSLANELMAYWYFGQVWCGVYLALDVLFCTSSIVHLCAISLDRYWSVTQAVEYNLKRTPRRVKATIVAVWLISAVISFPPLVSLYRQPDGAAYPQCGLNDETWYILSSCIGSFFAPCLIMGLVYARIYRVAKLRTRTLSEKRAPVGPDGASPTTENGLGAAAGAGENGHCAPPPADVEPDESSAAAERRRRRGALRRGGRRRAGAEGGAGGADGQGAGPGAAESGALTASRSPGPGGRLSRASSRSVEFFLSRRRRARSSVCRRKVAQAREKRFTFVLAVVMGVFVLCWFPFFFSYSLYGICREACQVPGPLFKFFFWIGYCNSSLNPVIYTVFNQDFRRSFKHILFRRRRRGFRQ

Chain of Ribosomal protein S6 kinase alpha-4 (Homo sapiens) (O75676 whole entry, looked up): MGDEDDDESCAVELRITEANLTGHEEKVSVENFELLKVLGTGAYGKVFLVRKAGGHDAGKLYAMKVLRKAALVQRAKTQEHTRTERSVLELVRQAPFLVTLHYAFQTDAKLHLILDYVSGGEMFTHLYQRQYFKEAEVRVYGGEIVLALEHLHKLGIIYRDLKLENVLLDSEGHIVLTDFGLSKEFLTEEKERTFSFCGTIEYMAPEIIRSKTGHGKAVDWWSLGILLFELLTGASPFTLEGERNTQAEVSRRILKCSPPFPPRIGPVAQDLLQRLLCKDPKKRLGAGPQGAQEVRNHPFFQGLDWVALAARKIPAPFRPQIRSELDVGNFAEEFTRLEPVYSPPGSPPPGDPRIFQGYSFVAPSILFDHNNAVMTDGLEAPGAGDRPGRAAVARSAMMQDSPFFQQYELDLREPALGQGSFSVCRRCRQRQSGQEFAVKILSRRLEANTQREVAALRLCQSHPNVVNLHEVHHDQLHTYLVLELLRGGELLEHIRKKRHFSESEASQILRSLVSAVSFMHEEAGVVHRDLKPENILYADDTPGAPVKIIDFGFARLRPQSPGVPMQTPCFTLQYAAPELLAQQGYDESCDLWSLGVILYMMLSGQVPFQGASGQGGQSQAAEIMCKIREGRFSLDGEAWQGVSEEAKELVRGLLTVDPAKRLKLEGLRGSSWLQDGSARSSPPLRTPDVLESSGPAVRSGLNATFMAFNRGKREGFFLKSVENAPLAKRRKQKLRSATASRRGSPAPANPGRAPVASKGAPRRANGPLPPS
Chain of Ephrin type-A receptor 7 (Homo sapiens) (Q15375 28-998 limits assumed): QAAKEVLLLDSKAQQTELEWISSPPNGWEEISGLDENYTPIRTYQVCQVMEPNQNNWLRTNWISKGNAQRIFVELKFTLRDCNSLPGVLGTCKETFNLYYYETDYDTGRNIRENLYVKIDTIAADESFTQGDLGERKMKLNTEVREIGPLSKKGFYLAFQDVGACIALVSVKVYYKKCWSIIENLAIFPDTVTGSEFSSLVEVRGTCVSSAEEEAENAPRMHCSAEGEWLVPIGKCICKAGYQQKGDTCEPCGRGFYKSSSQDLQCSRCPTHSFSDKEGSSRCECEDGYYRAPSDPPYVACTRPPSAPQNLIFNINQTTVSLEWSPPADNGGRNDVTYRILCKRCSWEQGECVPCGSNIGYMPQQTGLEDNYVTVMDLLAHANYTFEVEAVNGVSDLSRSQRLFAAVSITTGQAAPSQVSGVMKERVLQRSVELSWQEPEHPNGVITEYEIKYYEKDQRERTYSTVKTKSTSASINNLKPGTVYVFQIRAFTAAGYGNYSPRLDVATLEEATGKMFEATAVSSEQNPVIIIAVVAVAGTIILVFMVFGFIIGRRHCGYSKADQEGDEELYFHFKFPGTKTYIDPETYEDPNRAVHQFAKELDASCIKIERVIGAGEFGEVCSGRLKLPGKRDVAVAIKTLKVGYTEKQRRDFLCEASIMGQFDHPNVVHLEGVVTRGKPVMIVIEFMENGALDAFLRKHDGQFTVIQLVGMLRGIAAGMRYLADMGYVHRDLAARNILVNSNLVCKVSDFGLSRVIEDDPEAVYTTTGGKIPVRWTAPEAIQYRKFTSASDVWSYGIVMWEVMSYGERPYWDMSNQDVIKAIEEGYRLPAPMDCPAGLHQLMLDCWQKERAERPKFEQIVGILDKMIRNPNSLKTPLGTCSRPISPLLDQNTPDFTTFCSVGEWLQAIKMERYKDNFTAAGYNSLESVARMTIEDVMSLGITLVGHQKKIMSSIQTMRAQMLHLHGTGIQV
Chain of Ribosomal protein S6 kinase alpha-3 (Homo sapiens) (P51812 whole entry): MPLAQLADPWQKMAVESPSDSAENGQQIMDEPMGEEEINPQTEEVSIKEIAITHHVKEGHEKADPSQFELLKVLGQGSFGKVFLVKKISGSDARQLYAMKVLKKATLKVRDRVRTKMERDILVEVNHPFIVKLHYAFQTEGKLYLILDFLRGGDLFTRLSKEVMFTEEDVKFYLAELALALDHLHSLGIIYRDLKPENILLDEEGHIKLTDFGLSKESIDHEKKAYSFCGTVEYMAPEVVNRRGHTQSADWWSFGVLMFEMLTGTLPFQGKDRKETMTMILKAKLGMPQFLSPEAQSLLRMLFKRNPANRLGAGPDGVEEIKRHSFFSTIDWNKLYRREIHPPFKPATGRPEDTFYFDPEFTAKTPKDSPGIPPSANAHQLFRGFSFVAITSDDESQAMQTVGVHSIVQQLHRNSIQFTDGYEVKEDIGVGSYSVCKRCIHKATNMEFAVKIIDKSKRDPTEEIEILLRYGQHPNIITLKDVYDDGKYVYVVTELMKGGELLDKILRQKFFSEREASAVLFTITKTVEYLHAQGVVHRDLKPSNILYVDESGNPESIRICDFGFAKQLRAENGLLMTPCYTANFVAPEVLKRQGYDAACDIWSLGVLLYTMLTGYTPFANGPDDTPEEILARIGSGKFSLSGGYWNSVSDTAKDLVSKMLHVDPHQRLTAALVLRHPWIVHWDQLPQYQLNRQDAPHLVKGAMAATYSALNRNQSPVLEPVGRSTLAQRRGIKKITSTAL
Chain of Serine/threonine-protein kinase Sgk1 (Homo sapiens) (O00141 whole entry): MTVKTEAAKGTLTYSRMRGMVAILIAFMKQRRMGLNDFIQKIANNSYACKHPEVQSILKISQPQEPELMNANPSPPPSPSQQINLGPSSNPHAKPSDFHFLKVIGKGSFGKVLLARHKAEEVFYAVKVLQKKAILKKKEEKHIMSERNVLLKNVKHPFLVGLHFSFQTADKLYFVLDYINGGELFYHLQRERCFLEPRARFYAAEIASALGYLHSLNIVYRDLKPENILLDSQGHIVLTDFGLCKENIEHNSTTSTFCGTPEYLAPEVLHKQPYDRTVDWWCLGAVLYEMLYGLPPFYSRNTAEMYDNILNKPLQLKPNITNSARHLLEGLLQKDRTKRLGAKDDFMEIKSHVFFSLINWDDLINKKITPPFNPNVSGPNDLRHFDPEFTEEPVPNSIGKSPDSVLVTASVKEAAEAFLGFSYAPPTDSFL
Chain of Mast/stem cell growth factor receptor Kit (Homo sapiens), P10721 [V559D,V654A] (P10721 whole entry V559D/V654A): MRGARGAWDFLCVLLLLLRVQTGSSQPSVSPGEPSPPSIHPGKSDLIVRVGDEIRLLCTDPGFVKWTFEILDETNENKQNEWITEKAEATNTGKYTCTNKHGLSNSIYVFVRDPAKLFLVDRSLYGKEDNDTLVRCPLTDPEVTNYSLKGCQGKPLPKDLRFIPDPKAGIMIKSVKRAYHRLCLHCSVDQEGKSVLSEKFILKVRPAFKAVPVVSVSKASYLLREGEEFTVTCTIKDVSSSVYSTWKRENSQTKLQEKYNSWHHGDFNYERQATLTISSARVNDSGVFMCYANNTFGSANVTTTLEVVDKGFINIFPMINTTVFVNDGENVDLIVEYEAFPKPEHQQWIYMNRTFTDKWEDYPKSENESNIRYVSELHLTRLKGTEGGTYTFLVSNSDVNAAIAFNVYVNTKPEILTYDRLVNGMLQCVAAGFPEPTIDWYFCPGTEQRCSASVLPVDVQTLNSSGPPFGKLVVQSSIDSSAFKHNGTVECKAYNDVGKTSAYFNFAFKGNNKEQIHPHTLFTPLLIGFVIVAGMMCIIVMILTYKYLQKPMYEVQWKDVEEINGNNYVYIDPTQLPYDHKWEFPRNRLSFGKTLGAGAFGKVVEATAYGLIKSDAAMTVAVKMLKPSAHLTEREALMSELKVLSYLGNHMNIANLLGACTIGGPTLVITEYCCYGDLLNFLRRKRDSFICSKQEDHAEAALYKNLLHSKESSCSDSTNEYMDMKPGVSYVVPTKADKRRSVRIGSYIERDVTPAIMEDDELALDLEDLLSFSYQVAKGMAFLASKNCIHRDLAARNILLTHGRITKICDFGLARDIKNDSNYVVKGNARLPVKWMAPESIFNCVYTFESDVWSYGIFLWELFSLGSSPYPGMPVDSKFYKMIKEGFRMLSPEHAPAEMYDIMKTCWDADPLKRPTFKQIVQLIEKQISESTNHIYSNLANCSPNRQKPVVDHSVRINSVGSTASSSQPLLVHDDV
Chain of Activated CDC42 kinase 1 (Homo sapiens) (Q07912 whole entry, looked up): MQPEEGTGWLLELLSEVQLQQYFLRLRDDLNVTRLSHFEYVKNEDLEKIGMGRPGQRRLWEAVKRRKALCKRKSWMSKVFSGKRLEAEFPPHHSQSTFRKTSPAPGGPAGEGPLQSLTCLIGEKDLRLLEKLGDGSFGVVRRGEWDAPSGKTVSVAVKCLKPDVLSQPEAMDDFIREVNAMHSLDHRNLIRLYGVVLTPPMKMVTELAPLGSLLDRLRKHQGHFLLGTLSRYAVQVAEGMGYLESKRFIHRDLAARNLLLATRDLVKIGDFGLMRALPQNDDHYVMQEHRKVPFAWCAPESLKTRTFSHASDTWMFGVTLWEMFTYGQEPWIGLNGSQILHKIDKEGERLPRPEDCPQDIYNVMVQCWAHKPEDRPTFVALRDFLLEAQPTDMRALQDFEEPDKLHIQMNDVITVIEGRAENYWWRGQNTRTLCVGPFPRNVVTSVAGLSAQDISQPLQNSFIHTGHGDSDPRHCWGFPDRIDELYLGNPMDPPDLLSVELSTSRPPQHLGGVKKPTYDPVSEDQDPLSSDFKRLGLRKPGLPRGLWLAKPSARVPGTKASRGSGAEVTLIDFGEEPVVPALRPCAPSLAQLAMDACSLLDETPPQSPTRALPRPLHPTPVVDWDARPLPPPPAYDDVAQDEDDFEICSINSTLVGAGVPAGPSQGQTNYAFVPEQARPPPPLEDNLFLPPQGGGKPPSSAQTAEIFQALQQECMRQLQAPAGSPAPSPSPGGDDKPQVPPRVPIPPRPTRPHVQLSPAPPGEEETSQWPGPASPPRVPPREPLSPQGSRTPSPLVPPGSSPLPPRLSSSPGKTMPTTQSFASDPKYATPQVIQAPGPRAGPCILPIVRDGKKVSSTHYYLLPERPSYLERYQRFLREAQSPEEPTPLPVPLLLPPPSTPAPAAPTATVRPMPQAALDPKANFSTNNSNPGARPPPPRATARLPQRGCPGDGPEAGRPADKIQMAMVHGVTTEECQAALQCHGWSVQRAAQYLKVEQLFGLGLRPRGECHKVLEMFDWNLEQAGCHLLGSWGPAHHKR

Row | SMILES | residual activity [1] | residual activity [2] | residual activity [3] | residual activity [5] | residual activity [6] | residual activity [7] | residual activity [8] | residual activity [9] | residual activity [10] | residual activity [12] | residual activity [13] | residual activity [14] | residual activity [15] | residual activity [16] | residual activity [17] | inhibition [18] | residual activity [20] | residual activity [21] | residual activity [22] | residual activity [23] | further results
1 | C[C@@H](c1cccc(C#N)c1)n1cc(Cl)cc(C(N)=O)c1=N [(S)-9s] | 100% | 100% | 89% | 100% | 100% | 82% | 100% | 100% | 100% | 91% | 89% | 100% | 94% | 91% | 100% | -3.38% | 96% | 96% | 95% | 82% | Ki [4]: > 2700 nM (not active); inhibition [11]: 0.7%; inhibition [19]: -6.48%; inhibition [24]: 0.47%; residual activity [25]: 93%; residual activity [26]: 100%; residual activity [27]: 99%; residual activity [28]: 85%; residual activity [29]: 100%; inhibition [30]: -4.49%; residual activity [31]: 100%; residual activity [32]: 100%
2 | C[C@H](c1cccc(C#N)c1)n1cc(Cl)cc(C(N)=O)c1=N [(R)-9s] | 98% | 100% | 71% | 100% | 98% | 76% | 100% | 0% | 96% | 98% | 100% | 100% | 95% | 100% | 100% | 7.03% | 88% | 100% | 83% | 96% | inhibition [33]: 0%; inhibition [24]: -2.33%; residual activity [25]: 81%; residual activity [26]: 100%; residual activity [27]: 96%; residual activity [28]: 100%; inhibition [34]: 10%; residual activity [29]: 100%; residual activity [31]: 77%; residual activity [32]: 100%

Reference: ChEMBL document CHEMBL4507301 (2021)
